From ChEMBL document CHEMBL1152764, “Penicilliols A and B, novel inhibitors specific to mammalian Y-family DNA polymerases” (Bioorg Med Chem, 2009)

Biological target: T1, DNA polymerase iota (Mus musculus, UniProt Q6R3M4)
T1 sequence (Q6R3M4 whole entry): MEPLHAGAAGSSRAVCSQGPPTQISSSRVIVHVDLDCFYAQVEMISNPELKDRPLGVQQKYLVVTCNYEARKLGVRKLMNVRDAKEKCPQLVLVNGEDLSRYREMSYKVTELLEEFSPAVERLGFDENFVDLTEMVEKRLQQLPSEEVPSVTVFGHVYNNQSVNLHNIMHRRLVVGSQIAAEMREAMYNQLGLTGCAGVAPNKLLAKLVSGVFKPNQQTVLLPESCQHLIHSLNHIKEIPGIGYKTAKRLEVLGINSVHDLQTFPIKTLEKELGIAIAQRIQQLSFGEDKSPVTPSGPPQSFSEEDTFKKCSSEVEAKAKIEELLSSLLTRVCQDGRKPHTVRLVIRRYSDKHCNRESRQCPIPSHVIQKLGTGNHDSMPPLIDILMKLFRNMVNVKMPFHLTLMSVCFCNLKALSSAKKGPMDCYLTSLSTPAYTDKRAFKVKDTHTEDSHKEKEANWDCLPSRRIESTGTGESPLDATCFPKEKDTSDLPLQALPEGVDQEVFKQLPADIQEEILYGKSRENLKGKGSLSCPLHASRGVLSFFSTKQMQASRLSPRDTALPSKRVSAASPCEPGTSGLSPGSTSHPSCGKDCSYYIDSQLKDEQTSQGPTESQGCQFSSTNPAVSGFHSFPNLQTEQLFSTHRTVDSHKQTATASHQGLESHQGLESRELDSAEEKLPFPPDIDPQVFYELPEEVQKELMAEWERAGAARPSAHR
Experiment: Inhibition of mouse DNA polymerase iota

Row | IC50 [µM] | Compound
1 | 19.8 | C/C=C/C(=O)C1=C(OC)OC(C)(/C=C/C=C/C(C)O)C1=O (configuration not stated) [PENICILLIOL A]
2 | 32.5 | COC1=C(C(=O)CC(C)O)C(=O)C(C)(/C=C/C=C/C(C)O)O1 (configuration not stated) [PENICILLIOL B]
